Laboratory results: ChEMBL document CHEMBL1143954, “Characterization of thyroid hormone receptor alpha (TRalpha)-specific analogs with varying inner- and outer-ring substituents” (Bioorg Med Chem, 2008)

Assays:
[1] = target: T1, Thyroid hormone receptor beta (Homo sapiens, UniProt P10828)
T1 sequence (P10828 whole entry): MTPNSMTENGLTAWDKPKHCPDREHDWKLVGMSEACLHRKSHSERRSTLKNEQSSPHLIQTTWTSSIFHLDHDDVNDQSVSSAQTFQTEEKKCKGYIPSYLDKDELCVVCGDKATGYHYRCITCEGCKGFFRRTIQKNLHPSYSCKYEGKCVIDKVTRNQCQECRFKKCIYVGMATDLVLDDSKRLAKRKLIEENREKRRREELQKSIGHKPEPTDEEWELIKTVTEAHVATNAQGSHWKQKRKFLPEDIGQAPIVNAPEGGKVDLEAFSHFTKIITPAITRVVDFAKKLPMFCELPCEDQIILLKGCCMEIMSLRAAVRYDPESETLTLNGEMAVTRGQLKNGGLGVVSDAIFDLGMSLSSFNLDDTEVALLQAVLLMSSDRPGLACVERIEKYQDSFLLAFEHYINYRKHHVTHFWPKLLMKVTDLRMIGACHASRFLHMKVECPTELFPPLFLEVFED

[2] = target: T1, Thyroid hormone receptor beta; remark: listed apart in the source
[3] = target: T2, Thyroid hormone receptor alpha (Homo sapiens, UniProt P10827)
T2 sequence (P10827 whole entry): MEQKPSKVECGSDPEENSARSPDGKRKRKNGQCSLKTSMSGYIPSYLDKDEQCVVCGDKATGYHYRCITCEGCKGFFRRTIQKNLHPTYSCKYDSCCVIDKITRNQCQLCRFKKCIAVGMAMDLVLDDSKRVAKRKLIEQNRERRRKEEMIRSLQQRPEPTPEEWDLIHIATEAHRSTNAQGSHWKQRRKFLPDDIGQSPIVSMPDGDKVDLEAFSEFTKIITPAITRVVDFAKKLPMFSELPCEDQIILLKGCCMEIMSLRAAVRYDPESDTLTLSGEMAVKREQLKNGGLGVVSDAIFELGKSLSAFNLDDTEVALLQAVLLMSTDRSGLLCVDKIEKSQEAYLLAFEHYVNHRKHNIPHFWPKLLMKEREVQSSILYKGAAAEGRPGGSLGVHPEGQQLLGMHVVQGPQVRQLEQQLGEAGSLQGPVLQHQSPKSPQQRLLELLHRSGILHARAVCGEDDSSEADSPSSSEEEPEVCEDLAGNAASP

[4] = target: T1, Thyroid hormone receptor beta; remark: listed apart in the source
[5] = target: T2, Thyroid hormone receptor alpha; remark: listed apart in the source
Description: Effect on human TRalpha transactivation activity in U2OS cells by luciferase reporter assay

[6] = target: T2, Thyroid hormone receptor alpha; remark: listed apart in the source
Description: Effect on human TRalpha transactivation activity in HeLa cells by luciferase reporter assay

Row | SMILES | EC50 [1] [nM] | EC50 [2] [nM] | Kd [3] [nM] | Kd [4] [nM] | EC50 [5] [nM] | EC50 [6] [nM]
1 | O=C1NC(=O)C(Cc2cc(I)c(Oc3ccc(O)c(C4CC4)c3)c(I)c2)N1 (centres undefined) | 2000 | 100 | 25 | 49 | 145 | 39
2 | O=C1NC(=O)C(Cc2cc(I)c(Oc3ccc(O)cc3)c(I)c2)N1 (centres undefined) | > 20000 | > 10000 | 1700 | 2000 | > 20000 | > 10000
3 | O=C1NC(=O)C(Cc2cc(I)c(Oc3ccc(O)c(I)c3)c(I)c2)N1 (centres undefined) | 2000 | 216 | 24 | 36 | 105 | 21
4 | Cc1cc(Oc2c(I)cc(CC3NC(=O)NC3=O)cc2I)ccc1O (centres undefined) | 4000 | 180 | 42 | 53 | 146 | 27
5 | CC(C)c1cc(Oc2c(Br)cc(CC3NC(=O)NC3=O)cc2Br)ccc1O (centres undefined) | 421 | 32 | 17 | 18.4 | 128 | 8.4
6 | CC(C)c1cc(Oc2c(I)cc(CC3NC(=O)NC3=O)cc2I)ccc1O (centres undefined) | 390 | 58 | 1.2 | 1.7 | 34 | 11
7 | O=C1NC(=O)C(Cc2cc(I)c(Oc3ccc(O)c(Br)c3)c(I)c2)N1 (centres undefined) | 5200 | 530 | 43 | 68 | 206 | 44
8 | CCc1cc(Oc2c(I)cc(CC3NC(=O)NC3=O)cc2I)ccc1O (centres undefined) | 1400 | 27 | 15 | 18 | 87 | 10
9 | COc1cc(Oc2c(I)cc(CC3NC(=O)NC3=O)cc2I)ccc1O (centres undefined) | 8000 | 265 | 82 | 119 | 870 | 42
